Experiment [1] has as its target T1, SERCA1a (rabbit light skeletal SR vesicles) (Oryctolagus cuniculus, UniProt P04191).
T1 construct: rabbit muscles were freshly harvested from the back and hind leg of New Zealand White rabbits and purified using a sucrose gradient; from tissue; host or cells: rabbit (New Zealand White) back and hind leg skeletal muscle, light SR vesicles
Briefly: NADH-coupled Ca-ATPase activity assay, skeletal SR (CRC at pCa 5.4). Particulars: n = 3; for Skeletal SR ATPase Activity Percent Increase: maximal effect of CRC 0.05 to 50 µM, pCa 5.4, relative to DMSO, mean ± SD; for EC50: pCa 5.4, mean ± SD. In kind it is biochemical. The method, then: (§1) For skeletal SR, rabbit muscles were freshly harvested from the back and hind leg of New Zealand White rabbits and purified using a sucrose gradient. The resulting light skeletal SR contains 80% SERCA, as a proportion of total protein content. Cardiac SR vesicles were isolated from fresh porcine left ventricular tissue.
(§2) Functional assays were performed using rabbit light skeletal sarcoplasmic (SR) vesicles. For high-throughput NADH-coupled screening, assay mix containing a final concentration of 50 mM MOPS (pH 7.0), 100 mM KCl, 1 mM EGTA, 0.2 mM NADH, 1 mM phosphoenol pyruvate, 10 IU/mL of pyruvate kinase, 10 IU/mL of lactate dehydrogenase, 1 µM of the calcium ionophore A23187, 4 µg/mL skeletal SR, and added CaCl2 to obtain pCa 5.4 was dispensed into 384-well DIVERSet assay plates containing 50 nL of compound or DMSO using a FlexDrop Precision liquid dispenser (Perkin Elmer, Waltham, Massachusetts). Plates were sealed, covered from light, and incubated at room temperature for 20 min. The assay was then started by dispensing MgATP (termed “initiation mix”), to a final concentration of 5 mM in each well (80 µL total assay volume) with the FlexDrop liquid dispenser (Perkin Elmer). The time dependence of absorbance was measured at 340 nm in a SpectraMax Plus384 microplate spectrophotometer (Molecular Devices, Sunnyvale, CA). For follow-up concentration response curves of Hit compounds, 400 nL of either compound or DMSO was dispensed into each well using an Echo liquid dispenser (Beckman Coulter). Testing dose-dependent compound effects on rabbit skeletal SR vesicles was done using the same method, as described above in 384-well plates. Determining compound effects on cardiac SR vesicles was done in a similar method as above, with the exception of 10 µg/mL of cardiac SR incubated in assay mix consisting of a final concentration of 50 mM MOPS (pH 7.0), 100 mM KCl, 1 mM EGTA, 1 µM of the calcium ionophore A23187, and added CaCl2 to the desired free calcium values. After a 20 min incubation, the “initiation mix”, containing a final concentration of 0.2 mM NADH, 1 mM phosphoenol pyruvate, 10 IU/mL of pyruvate kinase, 10 IU/mL of lactate dehydrogenase, and 5mM MgATP, was dispensed into each well.
The initial screen assay was performed with compounds at 10 µM. To better study the selected Hit compounds for their activation potential, we performed ATPase analyses (in triplicate) over a range of Hit concentrations (0.05 to 50 µM), generating concentration-response curves (CRCs) to determine maximal effects and EC50 (Figure 2). We used the same Ca^2+ concentration (pCa 5.4) as in the screening assays, thus focusing on the effects on the maximal velocity of SERCA. Two of the selected Hits yielded no response in follow-up assays, probably due to a mismatch in chemical composition between the library compound and the subsequently ordered compound (DS95401435 and DS41547941). This type of discrepancy is a typical hurdle in the screening process. Each of the other 19 compounds produced a substantial increase in ATPase activity, ranging from 30% to 72% (Table 1 and Supporting Information, Figure S1), as expected due to similarity of the CRC assay to the initial screen.

Experiment [2] concerns the target T2, SERCA2a (cardiac SR vesicles) (Sus scrofa, UniProt P11607).
T2 construct: Cardiac SR vesicles were isolated from fresh porcine left ventricular tissue; from tissue; host or cells: porcine left ventricular tissue, cardiac SR vesicles
The experiment in a line: NADH-coupled Ca-ATPase activity assay, cardiac SR (CRC at pCa 5.4). It is filed as biochemical, porcine. As to conditions: pCa 5.4, mean ± SD, n = 3; for Cardiac SR ATPase Activity Percent Increase: maximal effect of CRC. As to the method:
as §1, §2
While initial screening was performed in skeletal SR enriched with the SERCA1a isoform, high sequence and structural homology with the cardiac SERCA2a isoform predicts a potential for cross reactivity of the Hit compounds. To test this hypothesis, we performed ATPase analyses with cardiac SR microsomes, which are enriched for SERCA2a.

For experiment [3], the target named is T3, SERCA1a (skeletal SR vesicles) (Oryctolagus cuniculus, UniProt P04191).
T3 construct: rabbit muscles were freshly harvested from the back and hind leg of New Zealand White rabbits and purified using a sucrose gradient; from tissue; host or cells: rabbit (New Zealand White) back and hind leg skeletal muscle, light SR vesicles
T3 sequence (P04191 1-994 isoform P04191-2): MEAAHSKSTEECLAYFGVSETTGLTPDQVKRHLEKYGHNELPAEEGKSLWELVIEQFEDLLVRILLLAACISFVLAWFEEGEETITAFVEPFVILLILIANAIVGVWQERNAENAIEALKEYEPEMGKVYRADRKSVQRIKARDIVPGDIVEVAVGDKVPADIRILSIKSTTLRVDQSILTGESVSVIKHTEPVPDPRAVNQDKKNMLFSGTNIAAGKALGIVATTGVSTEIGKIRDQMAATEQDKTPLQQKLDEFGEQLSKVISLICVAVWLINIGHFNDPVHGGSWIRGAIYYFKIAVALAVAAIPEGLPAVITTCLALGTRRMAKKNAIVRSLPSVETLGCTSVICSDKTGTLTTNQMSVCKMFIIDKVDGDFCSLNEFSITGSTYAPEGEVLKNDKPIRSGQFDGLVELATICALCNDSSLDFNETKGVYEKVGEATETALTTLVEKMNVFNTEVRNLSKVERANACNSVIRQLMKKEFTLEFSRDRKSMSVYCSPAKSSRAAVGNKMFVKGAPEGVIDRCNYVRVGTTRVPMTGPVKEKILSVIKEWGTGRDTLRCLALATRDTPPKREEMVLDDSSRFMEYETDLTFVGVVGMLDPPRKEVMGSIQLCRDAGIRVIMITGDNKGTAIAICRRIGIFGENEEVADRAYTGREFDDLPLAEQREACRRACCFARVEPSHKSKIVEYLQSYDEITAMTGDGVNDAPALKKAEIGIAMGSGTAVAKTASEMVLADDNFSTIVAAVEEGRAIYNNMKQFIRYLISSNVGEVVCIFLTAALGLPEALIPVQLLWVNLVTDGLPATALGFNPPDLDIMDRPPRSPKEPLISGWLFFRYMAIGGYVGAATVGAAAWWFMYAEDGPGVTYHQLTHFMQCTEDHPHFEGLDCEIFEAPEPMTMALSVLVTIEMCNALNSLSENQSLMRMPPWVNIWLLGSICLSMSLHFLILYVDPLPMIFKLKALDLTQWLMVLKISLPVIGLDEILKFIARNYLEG
Briefly: Oxalate-supported Ca2+-uptake assay, skeletal SR (CRC at pCa 5.4). It is filed as biochemical, rabbit. As to conditions: for Skeletal SR Ca^2+ Uptake Activity Percent Increase: maximal effect of CRC; for Skeletal SR Ca^2+ Uptake Activity Percent Increase / EC50: pCa 5.4, mean ± SD, dash = no observable effect; for EC50: read-out: Skeletal SR Ca^2+ Uptake Activity EC50; for Effect on Ca^2+ uptake activity in skeletal SR (in words): pCa 5.4; for Ca^2+ uptake effect (in words), SR type not given: uncoupling compounds, cluster 5, tissue not stated. As to the method: as §1
(§3) To determine compound effect on the Ca^2+-uptake activity of SERCA1a and SERCA2a, we used an oxalate-supported assay. A solution containing 50 mM MOPS (pH 7.0), 100 mM KCl, 30 mg/mL sucrose, 1 mM EGTA, 10 mM potassium oxalate, 2 µM Fluo-4, 30 µg/mL cardiac SR vesicles or 12 μg/mL skeletal SR vesicles, and CaCl2 calculated to reach the desired free [Ca^2+] was dispensed into 384-well black walled, transparent bottomed plates (Greiner Bio-One) containing the tested small molecule and incubated at 21 °C for 20 min while covered and protected from light. To start the reaction, MgATP was added to a final concentration of 5 mM, and the decrease in 485-nm excited fluorescence was monitored at 520 nm for 15 min using a FLIPR Tetra (Molecular Devices, San Jose, CA, USA).
While Ca^2+-dependent ATPase activity is a direct measure of SERCA activity, coupling of ATP hydrolysis to transport of Ca^2+ across the SR membrane is essential for the role of SERCA in cellular physiology. Therefore, we next asked whether our ATPase-based HTS assay could successfully identify compounds that also increase Ca^2+ uptake of SERCA.

For experiment [4], the target named is T2, SERCA2a (cardiac SR vesicles). The experiment in a line: Oxalate-supported Ca2+-uptake assay, cardiac SR (CRC at pCa 5.4). In kind it is biochemical, porcine. Particulars: for Compound classification from ATPase vs. Ca^2+ uptake CRCs, cardiac SR / Cardiac SR Ca^2+ Uptake Activity Percent Increase / EC50: n = 3; for Effect on Ca^2+ uptake activity in cardiac SR (in words): pCa 5.4; for Cardiac SR Ca^2+ Uptake Activity Percent Increase: maximal effect of CRC; for Cardiac SR Ca^2+ Uptake Activity Percent Increase / EC50: pCa 5.4, mean ± SD, dash = no observable effect; for EC50: read-out: Cardiac SR Ca^2+ Uptake Activity EC50. As to the method: as §1, §3
To determine whether the observed increases in SERCA2a ATPase activity translate to Ca^2+ uptake function, we applied our Ca^2+ transport assay to test our selected Hit compounds in cardiac SR (Table 1). Indeed, 16 of the 19 compounds yielded a clear increase in Ca^2+ uptake activity. In fact, eight compounds generated an increase at least 50% greater in cardiac SR than in skeletal SR. Three compounds had either an inhibitory or no effect on Ca^2+ transport, and two of these were also non-activating compounds in skeletal SR.

The structures appear in SMILES notation. “Also recorded” adds a separate entry of the source.

T2 sequence (P11607 1-997 isoform P11607-2): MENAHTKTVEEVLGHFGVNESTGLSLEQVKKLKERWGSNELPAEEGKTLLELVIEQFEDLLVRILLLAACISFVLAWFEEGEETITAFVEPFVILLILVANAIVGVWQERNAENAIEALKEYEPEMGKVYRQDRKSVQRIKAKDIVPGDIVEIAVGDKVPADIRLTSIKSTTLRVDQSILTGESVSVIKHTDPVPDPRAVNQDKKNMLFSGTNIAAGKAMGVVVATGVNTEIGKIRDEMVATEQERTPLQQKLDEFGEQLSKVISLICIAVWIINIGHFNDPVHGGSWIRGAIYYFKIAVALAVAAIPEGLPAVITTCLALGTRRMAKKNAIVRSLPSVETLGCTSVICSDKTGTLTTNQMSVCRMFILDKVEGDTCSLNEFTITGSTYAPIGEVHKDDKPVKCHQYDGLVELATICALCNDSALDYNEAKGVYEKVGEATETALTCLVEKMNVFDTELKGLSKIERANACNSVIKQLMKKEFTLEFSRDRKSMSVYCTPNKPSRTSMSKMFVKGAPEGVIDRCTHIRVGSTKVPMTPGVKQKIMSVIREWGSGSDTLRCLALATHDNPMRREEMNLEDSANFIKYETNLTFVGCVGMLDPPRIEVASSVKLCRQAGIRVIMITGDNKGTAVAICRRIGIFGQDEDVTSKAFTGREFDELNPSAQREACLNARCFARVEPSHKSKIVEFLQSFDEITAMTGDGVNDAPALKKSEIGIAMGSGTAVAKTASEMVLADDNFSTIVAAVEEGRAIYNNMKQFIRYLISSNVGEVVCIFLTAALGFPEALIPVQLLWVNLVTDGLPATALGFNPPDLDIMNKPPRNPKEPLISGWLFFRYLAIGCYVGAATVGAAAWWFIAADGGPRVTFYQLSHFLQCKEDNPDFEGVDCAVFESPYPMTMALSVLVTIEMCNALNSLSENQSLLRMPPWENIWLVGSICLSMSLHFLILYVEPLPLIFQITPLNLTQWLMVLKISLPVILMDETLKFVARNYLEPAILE
T1 sequence (P04191 1-994 isoform P04191-2): as the sequence (P04191 1-994 isoform P04191-2) above

`Fc1ccc(N2CCCN(Cc3nc(C(c4ccccc4)c4ccccc4)no3)CC2)cc1` [Compound 12]: in experiment [1], the “Skeletal SR ATPase Activity Percent Increase” value came to 41 ± 2% and the response was half-maximal at 3.4 ± 0.4 µM (EC50). Further, in experiment [2], the “Cardiac SR ATPase Activity Percent Increase” value came out at 29 ± 1% and a half-maximal effect (EC50) was put at 2.3 ± 0.3 µM. In addition, in experiment [3] (n = 3), the “Skeletal SR Ca^2+ Uptake Activity Percent Increase” value came out at 6.5 ± 0.5% and the EC50 was determined as 0.6 ± 0.2 µM. Further, in experiment [3] (skeletal SR), the “Effect on Ca^2+ uptake activity in skeletal SR (in words)” value (from here on “Effect … in skeletal SR (in words)”) is reported as “significant activation; also recorded: small but significant increase”. In experiment [4], the “Compound classification from ATPase vs. Ca^2+ uptake CRCs, cardiac SR” value was “Isoform-specific uncoupler”; the “Effect on Ca^2+ uptake activity in cardiac SR (in words)” value is “strong uncoupling effect; also recorded: inhibition of Ca^2+ uptake activity”; the “Cardiac SR Ca^2+ Uptake Activity Percent Increase” value is given as −10 ± 3%; the EC50 was found to be 1.3 ± 0.1 µM.

Take `CN(Cc1ccccc1)c1ncccc1CNc1ncccc1Cl` [Compound 13]: in experiment [1], the “Skeletal SR ATPase Activity Percent Increase” value was 36 ± 4% and the EC50 is 3.2 ± 0.6 µM. Besides, in experiment [2], the “Cardiac SR ATPase Activity Percent Increase” value worked out at 36 ± 4% and the midpoint of the response, the EC50, lay at 2.9 ± 0.6 µM. Moreover, in experiment [3] (n = 3), the “Skeletal SR Ca^2+ Uptake Activity Percent Increase” value was found to be 8 ± 2% and the concentration for a half-maximal effect (EC50) was 1.1 ± 0.6 µM. In experiment [4], the “Increase in Ca^2+ uptake in cardiac SR vs. skeletal” value is on record as “greater than 2 fold”, the “Cardiac SR Ca^2+ Uptake Activity Percent Increase” value came out at 21 ± 10% and the EC50 is 1.8 ± 2 µM.

For the molecule `COc1ccccc1CNc1nc(C(C)(C)C)nc2c1cnn2C` [Compound 14], in experiment [1], the “Skeletal SR ATPase Activity Percent Increase” value is 25 ± 3% and the half-maximal effective concentration (EC50) turned out to be 3.3 ± 0.6 µM. In experiment [2], the “Cardiac SR ATPase Activity Percent Increase” value was 56 ± 3% and a half-maximal response (EC50) required 5.2 ± 0.5 µM. The “Skeletal SR Ca^2+ Uptake Activity Percent Increase” value in experiment [3] (n = 3) turned out to be 8 ± 2%. Besides, in experiment [4], the “Increase in Ca^2+ uptake in cardiac SR vs. skeletal” value was “greater than 2 fold”, the “Cardiac SR Ca^2+ Uptake Activity Percent Increase” value was found to be 28 ± 5% and the EC50 was found to be 2.5 ± 0.9 µM.

Take `C=C(C)COc1cccc(C(=O)NCCn2cccn2)c1` [Compound 15]: in experiment [1], the “Skeletal SR ATPase Activity Percent Increase” value is given as 30 ± 1% and the concentration giving a half-maximal response (EC50) turned out to be 30 ± 12 µM. In experiment [2], the “Cardiac SR ATPase Activity Percent Increase” value was found to be 46 ± 6% and the response was half-maximal at 16 ± 3 µM (EC50). Moreover, the “Ca^2+ uptake effect (in words), SR type not given” value in experiment [3] is reported as “little to no Ca^2+ uptake effect”. In experiment [4], the “Cardiac SR Ca^2+ Uptake Activity Percent Increase” value was 6 ± 5% and the concentration giving a half-maximal response (EC50) is 5 ± 11 µM.

As for `COc1ccc(CCNC(=O)c2oc3c(Cl)cc(C)cc3c2C)cc1` [Compound 16], in experiment [1], the “Skeletal SR ATPase Activity Percent Increase” value is reported as 25 ± 1% and a half-maximal effect (EC50) was put at 3 ± 0.3 µM. Besides, in experiment [2], the “Cardiac SR ATPase Activity Percent Increase” value was found to be 26 ± 2% and the EC50 turned out to be 2.2 ± 0.4 µM. In experiment [3] (n = 3), the “Skeletal SR Ca^2+ Uptake Activity Percent Increase” value is given as −10 ± 2% and the EC50 was 7 ± 13 µM. The “Compound classification from ATPase vs. Ca^2+ uptake CRCs, skeletal SR” value in experiment [3] (skeletal SR, n = 3) was “Uncoupling Compounds”. Moreover, in experiment [3] (skeletal SR), the “Effect … in skeletal SR (in words)” value is on record as “inhibition of Ca^2+ uptake activity; also recorded: inhibitor of Ca^2+ uptake”. In experiment [3] (skeletal SR, listed as DS33804556), the “Effect … in skeletal SR (in words)” value was “inhibitory”. Also, the “Ca^2+ uptake effect (in words), SR type not given” value in experiment [3] is reported as “sizeable inhibitor effect”. In experiment [4], the “Compound classification from ATPase vs. Ca^2+ uptake CRCs, cardiac SR” value is recorded as “Uncoupling Compounds”; the “Effect on Ca^2+ uptake activity in cardiac SR (in words)” value is given as “inhibition of Ca^2+ uptake activity; also recorded: inhibitor of Ca^2+ uptake”; the “Cardiac SR Ca^2+ Uptake Activity Percent Increase” value is reported as −27 ± 3%; the EC50 stood at 8.9 ± 2 µM.

Usually EC50 stands for the concentration giving half of the maximal effect.
